From US20090318501A1, “Piperidine derivatives as renin inhibitors” (priority 2006, published 2009)

How the values were obtained:
[1] = target: T1, trypsin-activated recombinant human renin (Homo sapiens, UniProt P00797); assay: In vitro renin inhibition, fluorescence of internally quenched peptide substrate; assay type: biochemical; details: pH 7.0, rt
T1 sequence (P00797 67-406): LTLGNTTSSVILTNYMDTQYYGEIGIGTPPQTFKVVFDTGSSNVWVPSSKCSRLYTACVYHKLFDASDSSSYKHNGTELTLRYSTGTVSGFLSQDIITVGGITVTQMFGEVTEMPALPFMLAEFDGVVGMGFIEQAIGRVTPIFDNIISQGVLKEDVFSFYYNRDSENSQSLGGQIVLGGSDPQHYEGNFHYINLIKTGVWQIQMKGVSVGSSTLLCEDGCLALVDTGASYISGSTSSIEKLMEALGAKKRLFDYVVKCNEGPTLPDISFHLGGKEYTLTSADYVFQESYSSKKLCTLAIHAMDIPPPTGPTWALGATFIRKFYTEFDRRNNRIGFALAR
Experimental: The sequence of this peptide corresponds to the sequence of human angiotensinogen. The following test protocol was used. All reactions were carried out in a flat bottom white opaque microtiter plate. A 4 μL aliquot of 400 μM renin substrate (DABCYL-γ-[…]) in 192 μL assay buffer (50 mM BES, 150 mM NaCl, 0.25 mg/mL bovine serum albumin, pH7.0) was added to 4 μL of test compound in DMSO at various concentrations ranging from 10 μM to 1 nM final concentrations. Next, 100 μL of trypsin-activated recombinant human renin (final enzyme concentration of 0.2-2 nM) in assay buffer was added, and the solution was mixed by pipetting. The increase in fluorescence at 495 nm (excitation at 340 nm) is measured for 60-360 minutes at rt using a Perkin-Elmer Fusion microplate reader. The slope of a linear portion of the plot of fluorescence-increase as a function of time was then determined, and the rate was used for calculating percent inhibition in relation to uninhibited control. […] (Wang G. T. et al. Anal. Biochem. 1993, 210, 351; Nakamura, N. et al. J. Biochem. (Tokyo) 1991, 109, 741; Murakami, K. et al. Anal Biochem. 1981, 110, 232).

[2] = target: T2, plasma renin activity (PRA) (Homo sapiens, UniProt P00797); assay: In vitro plasma renin activity (PRA) in human plasma, angiotensin I radioimmunoassay; assay type: biochemical; details: pooled human plasma, 37° C., 90 min, IC50 of plasma renin activity
T2 construct: 87.3% of pooled mixed-gender human plasma stabilized with EDTA; from tissue; host or cells: pooled mixed-gender human plasma (EDTA)
T2 sequence (P00797 67-406): T1 sequence (P00797 67-406)
Experimental: For plasma batches with low PRA (less than 1 ng/ml/hr) ˜2 pM of recombinant human renin was added to achieve PRA of 3-4 ng/ml/hr. The cleavage of endogenous angiotensinogen in plasma was carried out at 37° C. for 90 min and the product angiotensin I was measured by competitive radioimmunoassay using DiaSorin PRA kit.

[3] = Plasma concentration in transgenic rats after oral administration; assay type: in vivo, rat; details: 10 mg/kg, FIG. 2
Experimental: FIG. 2 is a plot showing mean plasma concentrations of compound 6a in transgenic rats over time following oral administration of 10 mg/kg of compound 6a.
(§1) Experiments were conducted in 6-week-old double transgenic rats (dTGRs). The model has been described in detail earlier. […] The human angiotensinogen construct made up the entire human angiotensinogen gene (5 exons and 4 introns), with 1.3 kB of 5′-flanking and 2.4 kB of 3′-flanking sequences. The rats were purchased from RCC Ltd (Füillinsdorf, Switzerland). Radio telemetry transmitters were surgically implanted at 4 weeks of age. The telemetry system provided 24-h recordings of systolic, mean, diastolic arterial pressure (SAP, MAP, DAP, respectively) and heart rate (HR). Beginning on day 42, animals were transferred to telemetry cages. A 24 h telemetry reading was obtained. Rats were then dosed orally on the following 4 consecutive days (days 43-46). The rats were monitored continuously and allowed free access to standard 0.3%-sodium rat chow and drinking water.

[4] = system: double transgenic rats engineered to express human renin and human angiotensinogen; assay: In vivo efficacy in double transgenic rats, telemetry blood pressure; set-up: species or system rat; details: oral, 10 mg/kg, FIG. 3
Experimental: Double Transgenic Rat: The efficacy of the renin inhibitor 6a was evaluated in vivo in double transgenic rats engineered to express human renin and human angiotensinogen (Bohlender J, Fukamizu A, Lippoldt A, Nomura T, Dietz R, Menard J, Murakami K, Luft F C, Ganten D. High human renin hypertension in transgenic rats. Hypertension 1997, 29, 428-434).
as §1

CNC[C@H](CC1CCCOC1)NC(=O)N1CCC[C@@H]([C@@H](OCCNC(=O)OC)c2cccc(C)c2)C1 (stereo partly drawn) [Compound 1, methyl 2-((R)-((R)-1-((S)-1-(methylamino)-3-(tetrahydro-2H-pyran-3-yl)propan-2-ylcarbamoyl)piperidin-3-yl)(m-tolyl)methoxy)ethylcarbamate]
IC50 [1]: < 10 nM
IC50 [2]: < 10 nM

CNC[C@H](C[C@H]1CCCOC1)NC(=O)N1CCC[C@@H]([C@@H](OCCNC(=O)OC)c2cccc(F)c2)C1 [Compound 2a, methyl 2-((R)-(3-fluorophenyl)((R)-1-((S)-1-(methylamino)-3-((R)-tetrahydro-2H-pyran-3-yl)propan-2-ylcarbamoyl)piperidin-3-yl)methoxy)ethylcarbamate]
IC50 [1]: < 10 nM
IC50 [2]: < 10 nM

CNC[C@H](C[C@@H]1CCCOC1)NC(=O)N1CCC[C@@H]([C@@H](OCCNC(=O)OC)c2cccc(F)c2)C1 [Compound 2b, methyl 2-((R)-(3-fluorophenyl)((R)-1-((S)-1-(methylamino)-3-((S)-tetrahydro-2H-pyran-3-yl)propan-2-ylcarbamoyl)piperidin-3-yl)methoxy)ethylcarbamate]
IC50 [1]: < 10 nM
IC50 [2]: < 20 nM

CNC[C@H](C[C@H]1CCCOC1)NC(=O)N1CCC[C@@H]([C@@H](OCCNC(=O)OC)c2cc(F)cc(Cl)c2)C1 [Compound 3a, methyl 2-((R)-(3-chloro-5-fluorophenyl)((R)-1-((S)-1-(methylamino)-3-((R)-tetrahydro-2H-pyran-3-yl)propan-2-ylcarbamoyl)piperidin-3-yl)methoxy)ethylcarbamate]
IC50 [1]: < 1 nM
IC50 [2]: < 1 nM

CNC[C@H](C[C@@H]1CCCOC1)NC(=O)N1CCC[C@@H]([C@@H](OCCNC(=O)OC)c2cc(F)cc(Cl)c2)C1 [Compound 3b, Methyl 2-((R)-(3-chloro-5-fluorophenyl)((R)-1-((S)-1-(methylamino)-3-((S)-tetrahydro-2H-pyran-3-yl)propan-2-ylcarbamoyl)piperidin-3-yl)methoxy)ethylcarbamate]
IC50 [1]: < 10 nM
IC50 [2]: < 10 nM

CNC[C@H](C[C@H]1CCCOC1)NC(=O)N1CCC[C@@H]([C@@H](OCCNC(=O)OC)c2cc(F)cc(F)c2)C1 [Compound 4a, methyl 2-((R)-(3,5-difluorophenyl)((R)-1-((S)-1-(methylamino)-3-((R)-tetrahydro-2H-pyran-3-yl)propan-2-ylcarbamoyl)piperidin-3-yl)methoxy)ethylcarbamate]
IC50 [1]: < 10 nM
IC50 [2]: < 10 nM

CNC[C@H](C[C@@H]1CCCOC1)NC(=O)N1CCC[C@@H]([C@@H](OCCNC(=O)OC)c2cc(F)cc(F)c2)C1 [Compound 4b, methyl 2-((R)-(3,5-difluorophenyl)((R)-1-((S)-1-(methylamino)-3-((S)-tetrahydro-2H-pyran-3-yl)propan-2-ylcarbamoyl)piperidin-3-yl)methoxy)ethylcarbamate]
IC50 [1]: < 10 nM
IC50 [2]: < 50 nM

CNC[C@H](C[C@H]1CCCOC1)NC(=O)N1CCC[C@@H]([C@@H](OCCNC(=O)OC)c2cc(F)ccc2C)C1 [Compound 5a, methyl 2-((R)-(5-fluoro-2-methylphenyl)((R)-1-((S)-1-(methylamino)-3-((R)-tetrahydro-2H-pyran-3-yl)propan-2-ylcarbamoyl)piperidin-3-yl)methoxy)-ethylcarbamate]
IC50 [1]: < 10 nM
IC50 [2]: < 10 nM

CNC[C@H](C[C@@H]1CCCOC1)NC(=O)N1CCC[C@@H]([C@@H](OCCNC(=O)OC)c2cc(F)ccc2C)C1 [Compound 5b, methyl 2-((R)-(5-fluoro-2-methylphenyl)((R)-1-((S)-1-(methylamino)-3-((S)-tetrahydro-2H-pyran-3-yl)propan-2-ylcarbamoyl)piperidin-3-yl)methoxy)-ethylcarbamate]
IC50 [1]: < 20 nM
IC50 [2]: < 50 nM

CNC[C@H](C[C@H]1CCCOC1)NC(=O)N1CCC[C@@H]([C@@H](OCCNC(=O)OC)c2cccc(Cl)c2)C1 [Compound 6a, methyl 2-((R)-(3-chlorophenyl)((R)-1-((S)-1-(methylamino)-3-((R)-tetrahydro-2H-pyran-3-yl)propan-2-ylcarbamoyl)piperidin-3-yl)methoxy)ethylcarbamate]
oral bioavailability and metabolic stability [3]: excellent
plasma concentration of compound following oral administration [3]: remains relatively high over 24 h period
IC50 [1]: < 1 nM
effect on mean arterial blood pressure [4]: significant effect in lowering blood pressures
IC50 [2]: < 1 nM

CNC[C@H](C[C@@H]1CCCOC1)NC(=O)N1CCC[C@@H]([C@@H](OCCNC(=O)OC)c2cccc(Cl)c2)C1 [Compound 6b, methyl 2-((R)-(3-chlorophenyl)((R)-1-((S)-1-(methylamino)-3-((S)-tetrahydro-2H-pyran-3-yl)propan-2-ylcarbamoyl)piperidin-3-yl)methoxy)ethylcarbamate]
IC50 [1]: < 10 nM
IC50 [2]: < 10 nM

CNC[C@H](C[C@H]1CCCOC1)NC(=O)N1CCC[C@@H]([C@@H](OCCNC(=O)OC)c2ccccc2)C1 [Compound 7, methyl 2-((R)-((R)-1-((S)-1-(methylamino)-3-((R)-tetrahydro-2H-pyran-3-yl)propan-2-ylcarbamoyl)piperidin-3-yl)(phenyl)methoxy)ethylcarbamate]
IC50 [1]: < 20 nM
IC50 [2]: < 50 nM

CNC[C@H](C[C@H]1CCCOC1)NC(=O)N1CCC[C@@H]([C@@H](OCCNC(=O)OC)c2ccc(F)c(Cl)c2)C1 [Compound 8, methyl 2-((R)-(3-chloro-4-fluorophenyl)((R)-1-((S)-1-(methylamino)-3-((R)-tetrahydro-2H-pyran-3-yl)propan-2-ylcarbamoyl)piperidin-3-yl)methoxy)-ethylcarbamate]
IC50 [1]: < 10 nM
IC50 [2]: < 10 nM

CCOC(=O)NCCO[C@@H](c1cc(F)cc(Cl)c1)[C@@H]1CCCN(C(=O)N[C@H](CNC)C[C@H]2CCCOC2)C1 [Compound 9, ethyl 2-((R)-(3-chloro-5-fluorophenyl)((R)-1-((S)-1-(methylamino)-3-((R)-tetrahydro-2H-pyran-3-yl)propan-2-ylcarbamoyl)piperidin-3-yl)methoxy)-ethylcarbamate]
IC50 [1]: < 10 nM
IC50 [2]: < 50 nM

CNC[C@H](C[C@H]1CCCOC1)NC(=O)N1CCC[C@@H]([C@@H](OCCNC(=O)OC)c2cc(Cl)ccc2C)C1 [Compound 10, methyl 2-((R)-(5-chloro-2-methylphenyl)((R)-1-((S)-1-(methylamino)-3-((R)-tetrahydro-2H-pyran-3-yl)propan-2-ylcarbamoyl)piperidin-3-yl)methoxy)-ethylcarbamate]
IC50 [1]: < 10 nM
IC50 [2]: < 1 nM
